# Patent US4310660A, “Lincomycin compounds” (The Upjohn Company, priority 1980, dated 1982)
# Counter-ions that a name gives are not always drawn. Like-named read-outs stand apart in the source and are kept apart here.
# What was measured:
# Eubacterium lentum = test: MIC vs. anaerobic bacteria, agar dilution; assay type: cell-based; settings: Eggerthella lenta, UC6522, UC 6522, read-out: Minimal Inhibitory Concentration (MIC)
# Fusobacterium nucleatum = test: MIC vs. anaerobic bacteria, agar dilution; assay type: cell-based
# Clostridium tertium = test: MIC vs. anaerobic bacteria, agar dilution; assay type: cell-based; settings: UC6508, UC 6508, read-out: Minimal Inhibitory Concentration (MIC)
# Eubacterium limosum = test: MIC vs. anaerobic bacteria, agar dilution; assay type: cell-based; settings: UC6515, UC 6515, read-out: Minimal Inhibitory Concentration (MIC)
# [1] = tested on: Peptococcus asaccharolyticus; test: MIC vs. anaerobic bacteria, agar dilution; assay type: cell-based; settings: Peptoniphilus asaccharolyticus, UC6214, UC 6214, read-out: Minimal Inhibitory Concentration (MIC)
# Clostridium perfringens = test: microbe, parasite or virus in culture; assay type: cell-based
# S. aureus = test: Mouse Protection Test; assay type: in vivo; settings: Staphylococcus aureus
# Text: (§1) Immediately before use, the suspensions were thawed quickly and properly diluted. Infection was via the intrapertioneal route.
# (§2) Treatment of the infected groups was begun immediately and continued once per day for 4 days (first 24 hr period=1). Groups of untreated mice served as virulence controls for the culture.
# (§3) Seven days after the treatment regimen was begun the surviving animals were sacrificed and the median protective dose of the antibiotic calculated on the basis of mortality rates in the treatment groups. The median protective dose and its 95% confidence interval were calculated according to the method of Spearmen & Karber as programmed on a 360 digital computer.
# K. pneumoniae = test: Mouse Protection Test; assay type: in vivo; settings: Klebsiella pneumoniae, 168 h; route not given; once per day for 4 days; read-out: CD50 (median protective dose)
# Text: as §1, §2, §3
# S. hemolyticus = test: Mouse Protection Test; assay type: in vivo; settings: for ED50: 168 h
# Text: as §1, §2, §3
# Bacteroides distasonis = test: MIC vs. anaerobic bacteria, agar dilution; assay type: cell-based; settings: Parabacteroides distasonis, UC6518, UC 6518, read-out: Minimal Inhibitory Concentration (MIC)
# Clostridium difficile = test: MIC vs. anaerobic bacteria, agar dilution; assay type: cell-based; settings: Clostridioides difficile
# Bacteroides fragilis = test: MIC vs. anaerobic bacteria, agar dilution; assay type: cell-based
# D. pneumoniae I = test: Mouse Protection Test; assay type: in vivo; settings: Streptococcus pneumoniae, 168 h, strain Felton I, read-out: Median Protective Dose (CD50)
# Text: as §1, §2, §3
# U-60,970E was also tested in vivo in standard laboratory mice which were experimentally infected with bacteria. The test was conducted in comparison with U-57,930E.
# Staphylococcus aureus = test: MIC vs. aerobic bacteria, microplate broth-dilution (BHI); assay type: cell-based; settings: Staphylococcus aureus, read-out: Minimal Inhibitory Concentration (MIC)
# [2] = tested on: Salmonella schottmuelleri; test: as above; assay type: cell-based; settings: Salmonella, UC126; UC 126; read-out: Minimal Inhibitory Concentration (MIC)
# Procedure: (§4) The Minimal Inhibitory Concentration (MIC's) of both compounds Vs. aerobic bacteria is determined using a standard microplate broth-dilution method. Brain Heart Infusion (BHI-Difco) broth medium is used, and the plates are incubated at 37° C. for 20 hrs.
# Streptococcus pyogenes = test: as above; assay type: cell-based; settings: UC152, UC 152, read-out: Minimal Inhibitory Concentration (MIC)
# Procedure: as §4
# [3] = tested on: Staphylococcus epidermidis; test: as above; assay type: cell-based
# Procedure: as §4
# Klebsiella pneumoniae = test: as above; assay type: cell-based; settings: Klebsiella pneumoniae, UC58, UC 58; read-out: Minimal Inhibitory Concentration (MIC)
# Procedure: as §4
# Diplococcus pneumoniae = test: as above; assay type: cell-based; settings: Streptococcus pneumoniae, read-out: Minimal Inhibitory Concentration (MIC)
# Procedure: as §4
# Pseudomonas aeruginosa = test: as above; assay type: cell-based; settings: UC95, UC 95, read-out: Minimal Inhibitory Concentration (MIC)
# Procedure: as §4
# Escherichia coli = test: as above; assay type: cell-based; settings: UC45, UC 45, read-out: Minimal Inhibitory Concentration (MIC)
# Procedure: as §4
# Streptococcus faecalis = test: as above; assay type: cell-based; settings: Enterococcus faecalis, UC694, UC 694; read-out: Minimal Inhibitory Concentration (MIC)
# Procedure: as §4
# Streptococcus viridans = test: as above; assay type: cell-based
# Procedure: as §4
# Proteus vulgaris = test: as above; assay type: cell-based; settings: Proteus vulgaris, UC93, UC 93; read-out: Minimal Inhibitory Concentration (MIC)
# Procedure: as §4
smiles,measurement,setting,value
"CC[C@@H]1CCN[C@H](C(=O)N[C@@H]([C@H]2O[C@H](SC)[C@H](O)[C@@H](O)[C@H]2O)[C@H](C)Cl)C1 [U-57,930E, 4-Cis-ethyl-1-pipecolic acid amide of 7-Cl-MTL.HCl]",MIC,Eubacterium lentum,1 µg/mL
same,MIC,"Fusobacterium nucleatum; UC6324, UC 6324, read-out: Minimal Inhibitory Concentration (MIC)",0.06 µg/mL
same,MIC,"Fusobacterium nucleatum; UC6516, UC 6516, read-out: Minimal Inhibitory Concentration (MIC)",0.12 µg/mL
same,MIC,Clostridium tertium,7.8 µg/mL
same,MIC,Eubacterium limosum,2 µg/mL
same,MIC,[1],0.25 µg/mL
same,MIC,"Clostridium perfringens; UC247, read-out: Minimal Inhibitory Concentration (MIC)",0.12 µg/mL
same,MIC,"Clostridium perfringens; UC6509, read-out: Minimal Inhibitory Concentration (MIC)",0.12 µg/mL
same,ED50,"S. aureus; 168 h, oral, once per day for 4 days, 95% confidence interval, read-out: CD50 (median protective dose)",1 to 5 mg/kg
same,ED50,"S. aureus; UC76, 168 h, strain UC 76, oral, read-out: Median Protective Dose (CD50)",8.12 mg/kg
same,ED50,"S. aureus; UC76, sc, 168 h, strain UC 76, subcutaneous, read-out: Median Protective Dose (CD50)",1.07 mg/kg
same,ED50,"S. aureus; sc, 168 h, read-out: CD50 (median protective dose)",< 5 mg/kg
same,ED50,K. pneumoniae,> 320 mg/kg
same,ED50,"S. hemolyticus; oral, once per day for 4 days, 95% confidence interval, read-out: CD50 (median protective dose)",2.9 mg/kg
same,ED50,"S. hemolyticus; strain C203, oral, read-out: Median Protective Dose (CD50)",3.79 mg/kg
same,Ratio (clindamycin / U-57930A CD50),S. hemolyticus; oral,4.2
same,ED50,"S. hemolyticus; sc, strain C203, subcutaneous, read-out: Median Protective Dose (CD50)",0.38 mg/kg
same,ED50,"S. hemolyticus; sc, subcut., once per day for 4 days, 95% confidence interval, two experiments listed, read-out: CD50 (median protective dose)",0.25 mg/kg
same,MIC,Bacteroides distasonis,≤ 0.03 µg/mL
same,MIC,"Clostridium difficile; UC6834, UC 6834, read-out: Minimal Inhibitory Concentration (MIC)",3.9 µg/mL
same,MIC,"Clostridium difficile; UC6857, UC 6857, read-out: Minimal Inhibitory Concentration (MIC)",125 µg/mL
same,MIC,"Clostridium difficile; UC6858, UC 6858, read-out: Minimal Inhibitory Concentration (MIC)",3.9 µg/mL
same,MIC,"Clostridium difficile; UC6860, UC 6860, read-out: Minimal Inhibitory Concentration (MIC)",500 µg/mL
same,MIC,"Clostridium difficile; UC6861, UC 6861, read-out: Minimal Inhibitory Concentration (MIC)",2 µg/mL
same,MIC,"Bacteroides fragilis; UC6428, UC 6428, read-out: Minimal Inhibitory Concentration (MIC)",0.25 µg/mL
same,MIC,"Bacteroides fragilis; UC6513, UC 6513, read-out: Minimal Inhibitory Concentration (MIC)",0.12 µg/mL
same,MIC,"Bacteroides fragilis; UC6862, UC 6862, read-out: Minimal Inhibitory Concentration (MIC)",15.6 µg/mL
same,MIC,"Bacteroides fragilis; UC6864, UC 6864, read-out: Minimal Inhibitory Concentration (MIC)",2 µg/mL
same,ED50,D. pneumoniae I; oral,15.4 mg/kg
same,ED50,"D. pneumoniae I; sc, subcutaneous",1.54 mg/kg
same,MIC,"Staphylococcus aureus; UC76, S. aureus UC 76",0.1 µg/mL
same,MIC,"Staphylococcus aureus; UC570, S. aureus UC 570",0.39 µg/mL
same,MIC,"Staphylococcus aureus; UC571, S. aureus UC 571",0.78 µg/mL
same,MIC,"Staphylococcus aureus; UC746, S. aureus UC 746",0.05 µg/mL
same,MIC,"Staphylococcus aureus; UC6675, S. aureus UC 6675",0.39 µg/mL
same,MIC,"Staphylococcus aureus; UC6685, S. aureus UC 6685",> 25 µg/mL
same,MIC,"Staphylococcus aureus; UC6686, S. aureus UC 6686",0.2 µg/mL
same,MIC,"Staphylococcus aureus; UC6687, S. aureus UC 6687",0.2 µg/mL
same,MIC,"Staphylococcus aureus; UC6688, S. aureus UC 6688",> 25 µg/mL
same,MIC,"Staphylococcus aureus; UC6689, S. aureus UC 6689",0.78 µg/mL
same,MIC,"Staphylococcus aureus; UC6690, S. aureus UC 6690",0.2 µg/mL
same,MIC,"Staphylococcus aureus; UC6691, S. aureus UC 6691",0.2 µg/mL
same,MIC,"Staphylococcus aureus; UC6692, S. aureus UC 6692",> 25 µg/mL
same,MIC,"Staphylococcus aureus; UC6693, S. aureus UC 6693",0.78 µg/mL
same,MIC,"Staphylococcus aureus; UC6694, S. aureus UC 6694",> 25 µg/mL
same,MIC,"Staphylococcus aureus; UC6695, S. aureus UC 6695",0.39 µg/mL
same,MIC,"Staphylococcus aureus; UC6696, S. aureus UC 6696",0.39 µg/mL
same,MIC,[2],> 50 µg/mL
same,MIC,Streptococcus pyogenes,≤ 0.012 µg/mL
same,MIC,"[3]; UC719, UC 719, read-out: Minimal Inhibitory Concentration (MIC)",0.2 µg/mL
same,MIC,"[3]; UC3389, UC 3389, read-out: Minimal Inhibitory Concentration (MIC)",0.2 µg/mL
same,MIC,Klebsiella pneumoniae,> 50 µg/mL
same,MIC,"Diplococcus pneumoniae; UC41, Diplococcus pneumoniae I, UC 41",≤ 0.012 µg/mL
same,MIC,"Diplococcus pneumoniae; UC3213, Diplococcus pneumoniae II, UC 3213",≤ 0.012 µg/mL
same,MIC,Pseudomonas aeruginosa,> 50 µg/mL
same,MIC,Escherichia coli,> 50 µg/mL
same,MIC,Streptococcus faecalis,6.25 µg/mL
same,MIC,"Streptococcus viridans; UC153, UC 153, read-out: Minimal Inhibitory Concentration (MIC)",0.05 µg/mL
same,MIC,"Streptococcus viridans; UC871, UC 871, read-out: Minimal Inhibitory Concentration (MIC)",≤ 0.012 µg/mL
same,MIC,Proteus vulgaris,> 50 µg/mL
